According to paper PMC9471048, “The signaling and selectivity of α‐adrenoceptor agonists for the human α2A, α2B and α2C‐adrenoceptors and comparison with human α1 and β‐adrenoceptors” (Pharmacology Research & Perspectives, 2022):
Read-outs that look alike come from different tables or passages of the source.

Key:
[1] = molecular target: T1, human α2A‐adrenoceptor (Homo sapiens, UniProt P08913); test: ERK1/2‐phosphorylation in CHO‐α2A cells; type: cell-based; set-up: expressed in transfected cells; host or cells: CHO-K1 with CRE-SPAP reporter
T1 sequence (P08913 1-465): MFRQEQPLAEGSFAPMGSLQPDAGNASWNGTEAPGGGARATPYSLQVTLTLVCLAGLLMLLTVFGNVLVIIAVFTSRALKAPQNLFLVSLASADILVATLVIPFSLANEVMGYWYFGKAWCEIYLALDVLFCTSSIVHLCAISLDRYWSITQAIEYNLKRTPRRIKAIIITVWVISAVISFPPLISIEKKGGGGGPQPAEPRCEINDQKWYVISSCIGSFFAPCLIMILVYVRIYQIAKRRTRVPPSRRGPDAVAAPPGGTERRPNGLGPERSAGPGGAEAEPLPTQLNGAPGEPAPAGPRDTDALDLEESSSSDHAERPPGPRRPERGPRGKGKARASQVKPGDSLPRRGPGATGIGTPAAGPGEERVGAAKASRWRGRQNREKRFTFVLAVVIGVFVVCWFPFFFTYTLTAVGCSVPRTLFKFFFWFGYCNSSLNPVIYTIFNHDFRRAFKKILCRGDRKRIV

[2] = molecular target: T2, human α2C‐adrenoceptor (Homo sapiens, UniProt P18825); test: ERK1/2‐phosphorylation in CHO‐α2C cells; type: cell-based; set-up: expressed in transfected cells; host or cells: CHO-K1 with CRE-SPAP reporter; details: for Log EC50, ERK1/2‐phosphorylation: given as negative log EC50, mean ± SEM
T2 sequence (P18825 1-462): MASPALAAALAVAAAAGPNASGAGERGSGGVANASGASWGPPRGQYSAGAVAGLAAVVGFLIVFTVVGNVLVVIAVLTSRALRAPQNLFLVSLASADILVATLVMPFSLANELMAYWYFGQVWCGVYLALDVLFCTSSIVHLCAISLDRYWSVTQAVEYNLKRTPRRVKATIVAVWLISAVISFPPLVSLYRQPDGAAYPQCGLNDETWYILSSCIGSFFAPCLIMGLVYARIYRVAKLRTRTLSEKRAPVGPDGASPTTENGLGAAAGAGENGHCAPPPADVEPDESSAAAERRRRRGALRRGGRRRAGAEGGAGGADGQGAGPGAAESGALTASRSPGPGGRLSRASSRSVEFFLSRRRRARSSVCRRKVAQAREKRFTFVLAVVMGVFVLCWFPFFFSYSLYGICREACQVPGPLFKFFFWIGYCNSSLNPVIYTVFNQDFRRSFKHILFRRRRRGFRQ

[3] = molecular target: T1, human α2A‐adrenoceptor
[4] = molecular target: T2, human α2C‐adrenoceptor; test: 3H‐rauwolscine whole cell binding in CHO‐α2C cells; set-up: expressed in transfected cells; host or cells: CHO-K1 with CRE-SPAP reporter
[5] = molecular target: T2, human α2C‐adrenoceptor
[6] = molecular target: T1, human α2A‐adrenoceptor; test: 3H‐rauwolscine whole cell binding in CHO‐α2A cells; set-up: expressed in transfected cells; host or cells: CHO-K1 with CRE-SPAP reporter
[7] = CHO‐α2C cells, 3H‐rauwolscine whole cell binding, given as negative log KD, mean only (SEM in Table 4), read-out: Log KD (converted)
[8] = CHO‐α2C cells, % inhibition from the 3 μM forskolin control, mean ± SEM
[9] = CHO‐α2C cells, CRE‐SPAP production in the absence of forskolin
[10] = CHO‐α2C cells, maximum response compared to 10 μM PDBu, mean ± SEM
[11] = CHO‐α2C cells, 3H‐rauwolscine whole cell binding, given as negative log KD, mean only (SEM in Table 4)
[12] = CHO‐α2C cells, inhibition of 3 μM forskolin‐stimulated CRE‐SPAP production, given as negative log IC50, mean ± SEM

COc1ccc(OC)c(C(O)CNC(=O)CN)c1 (stereo not drawn) [Midodrine]
% 10 μM PDBu, ERK1/2‐phosphorylation, response at 100 μM agonist ([1]; CHO‐α2A, response at 100 μM): 101.0 ± 15.5% | % 10 μM PDBu, ERK1/2‐phosphorylation ([2]; CHO‐α2C cells, response at 100 μM ligand (no EC50 given) compared to 10 μM PDBu): 80.9 ± 15.6%

NC[C@H](O)c1ccc(O)c(O)c1 [Noradrenaline]
% 3 μM forskolin, CRE‐SPAP (without forskolin) ([3]; CHO‐α2A (cell line 1), maximum response compared to 3 μM forskolin): 171.5 ± 11.1% | Kd ([4]; 3H‐rauwolscine whole cell binding, living cells, negative log KD, mean ± SEM, read-out: Log KD, CHO‐α2C (converted)): 32.4 µM | Kd [4, 7]: 32.4 µM | IC50 [5]: 0.309 µM | % inhibition, CRE‐SPAP (with forskolin) [5, 8]: 83.0 ± 3.1% | Log EC50 (Gs), CRE‐SPAP (without forskolin) [5, 9]: No response | % 10 μM PDBu, ERK1/2‐phosphorylation ([1]; CHO‐α2A, maximum response compared to 10 μM PDBu): 121.9 ± 6.3% | % 10 μM PDBu, ERK1/2‐phosphorylation [2, 10]: 142.3 ± 10.7%

C1=C(c2cnc[nH]2)c2ccsc2CC1 [RWJ52353]
Log KD (apparent), CHO‐α2C ([4]; 3H‐rauwolscine whole cell binding, ^app: apparent KD, IC50 from extrapolated curve as not all specific binding was inhibited): −4.67 ± 0.08^app | Log KD [4, 11]: −4.67 | Log efficacy ratio (KD/IC50) [5]: 1.80 | % inhibition, CRE‐SPAP (with forskolin) [5, 8]: 76.5 ± 5.6% | Log EC50 (Gs), CRE‐SPAP (without forskolin) [5, 9]: No response | Log IC50 (Gi), CRE‐SPAP (with forskolin) [5, 12]: −6.47 ± 0.10 | % 10 μM PDBu, ERK1/2‐phosphorylation [2, 10]: 143.5 ± 14.0% | Log EC50, ERK1/2‐phosphorylation ([2]; CHO‐α2C cells): −7.74 ± 0.09

CNC[C@H](O)c1cccc(O)c1 [R‐phenylephrine]
% inhibition, CRE‐SPAP (with forskolin) [5]: 77.5 ± 3.4% | % 10 μM PDBu, ERK1/2‐phosphorylation [2]: 157.0 ± 15.4%

CCc1cccc(CC)c1NC1=NCCN1 [ST‐91]
Log KD [4, 11]: −6.18 | Log efficacy ratio (KD/IC50) [5]: 1.28 | % inhibition, CRE‐SPAP (with forskolin) [5, 8]: 76.5 ± 4.4% | Log EC50 (Gs), CRE‐SPAP (without forskolin) [5, 9]: No response | Log IC50 (Gi), CRE‐SPAP (with forskolin) [5, 12]: −7.46 ± 0.09 | % 10 μM PDBu, ERK1/2‐phosphorylation [2, 10]: 154.0 ± 15.0% | Log EC50, ERK1/2‐phosphorylation ([2]; CHO‐α2C cells): −7.93 ± 0.17

OCc1cc(C(O)CNCCCCCCOCCCCc2ccccc2)ccc1O (stereo not drawn) [Salmeterol]
Log EC50 (Gs), CRE‐SPAP (without forskolin) ([3]; CHO‐α2A (cell line 1), absence of forskolin): No response | Log IC50 (Gi), CRE‐SPAP (with forskolin) ([3]; CHO‐α2A (cell line 1, 5830 fmol/mg protein), 3 μM forskolin): No response | Kd [4, 7]: 5.25 µM | Kd ([6]; read-out: Log KD (binding) (converted)): 17.4 µM | Log IC50 (Gi), CRE‐SPAP (with forskolin) [5]: No response | Log EC50 (Gs), CRE‐SPAP (without forskolin) [5, 9]: No response

Cc1sc(C)c2c1CCC=C2c1cnc[nH]1.O=C(O)/C=C\C(=O)O [T‐CG 1000]
Log KD [4, 11]: −6.75 | Log efficacy ratio (KD/IC50) [5]: −0.63 | % inhibition, CRE‐SPAP (with forskolin) [5, 8]: 50.2 ± 5.1% | Log EC50 (Gs), CRE‐SPAP (without forskolin) [5, 9]: No response | Log IC50 (Gi), CRE‐SPAP (with forskolin) [5, 12]: −6.12 ± 0.05 | % 10 μM PDBu, ERK1/2‐phosphorylation [2, 10]: 87.5 ± 14.2% | Log EC50, ERK1/2‐phosphorylation ([2]; CHO‐α2C cells): −7.05 ± 0.14

COC(=O)[C@@H]1[C@H]2C[C@H]3c4[nH]c5ccccc5c4CCN3C[C@@H]2CC[C@@H]1O [yohimbine]
Schild slope (Gi), dexmedetomidine as agonist [3]: 1.11 ± 0.07 | Schild slope, inhibitory (Gi) component [3]: 1.00 ± 0.08 | Schild slope, stimulatory (Gs) component [3]: 0.92 ± 0.11

CC(N)C(O)c1ccc(O)c(O)c1 (stereo not drawn) [α‐methylnorepinephrine]
% 3 μM forskolin, CRE‐SPAP (without forskolin) [3]: 171.1 ± 4.3% | Log EC50 (Gs), CRE‐SPAP (with forskolin) [3]: −5.31 ± 0.05 | Log EC50 (Gs), CRE‐SPAP (without forskolin) [3]: −5.29 ± 0.02 | Log IC50 (Gi), CRE‐SPAP (with forskolin) [3]: −6.47 ± 0.05 | Log KD [4]: −5.16 | Log KD (apparent), CHO‐α2A [6]: −3.69 ± 0.04^app | Log KD (binding) [6]: −3.69 | % inhibition, CRE‐SPAP (with forskolin) [5]: 85.2 ± 3.0% | Log EC50 (Gs), CRE‐SPAP (without forskolin) [5]: No response | Log IC50 (Gi), CRE‐SPAP (with forskolin) [5]: −6.52 ± 0.12 | % 10 μM PDBu, ERK1/2‐phosphorylation [1]: 142.6 ± 22.3%
